A value given as a limit tells only on which side of the number the result lay.

Assay [1] deals with cultures of S. aureus and MRSA. Nature of the assay: electron microscopy of cell morphology. It counts as cell-based, Staphylococcus aureus. The settings on record: Example 1; electron microscopy, high magnification. The source says:
The structure-bioactivity patterns observed for these N-thiolated lactams are highly atypical for a β-lactam antibiotic. The compounds are lipohilic and devoid of the typical acidic ring functionality required for recognition by the penicillin binding proteins. The implication that the lactams set forth in FIGS. 1A-1I are not acting in the same manner or on the same enzymes as the traditional β-lactam drugs is supported by electron microscopy experiments, which confirm that cell morphology is unaffected by the lactam of FIG. 1D (Greenwood, D. et al. Science, 1969, 163:1076).
(§1) In fact, only small isolated colonies of surviving cells can be found, all of which appear perfectly normal in size, shape, smoothness, and clustering behavior. […] Pulse radiolabeling experiments indicate that the lactam of FIG. 1D blocks the bacterial uptake of ^3H-uridine and ^3H-leucine at low (MIC) levels (Lim, D. V. et al. Microbiology, 1977, 33:328; Champney, W. S. and C. G. Tober Antimicrob. Agents and Chemother., 2000, 44:1413).
Light microscopy and scanning electron microscopy experiments have enabled us to look for cell wall damage in cultures of S. aureus and MRSA grown in the presence of N-methylthio lactam (FIG. 11F) over a range of different concentrations and cell growth conditions. […] Those cells that survive the treatment appear normal (coccal) and fully mature.

A further assay deals with MRSA strains. Description: MIC by agar dilution. It counts as cell-based, Staphylococcus aureus. The settings on record: Staphylococcus aureus, MRSA, read-out: Minimum inhibitory concentration (MIC). The source says: However, the N-alkylthio substituent is required, since reduction to the N—H analogue completely destroys the biological activity.
In general terms: Agar dilution tests growth on a series of plates holding different concentrations.

Assay [2] deals with S. saprophyticus (ATCC 3552). Description: Kirby-Bauer agar disk diffusion. The class given is cell-based, Staphylococcus saprophyticus. The settings on record: 6-mm disks, 20 μg test compound. The procedure, abridged: (§2)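 Agar disk diffusion used 6-mm air-dried disks carrying 20 μg of compound. Values are mean diameters (mm) of the growth-inhibition zone at 24 h, from triplicate experiments. S. epidermidis and S. simulans were clinical isolates.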

For a further assay, the system named is MRSA cells. Nature of the assay: light microscopy after Gram staining. It counts as cell-based, Staphylococcus aureus.
Text: as §1
(FIGS. 14A-14C) S. aureus is a Gram-positive microorganism, and thus reacts with Gram stain to produce a purple coloration due to binding of the stain to the peptidoglycan. 100% of MRSA cells grown either in the absence or presence of the lactam of FIG. 11F take on a purple color when Gram stained (top and center images, next page). In contrast, for MRSA cells treated with penicillin G or vancomycin (cell wall synthesis inhibitors), only about 30% of the cells are Gram-stained purple, with the remainder of the cells appearing pink (bottom image, next page) due to morphologically altered walls. This is strong evidence that the N-methylthio lactams are not affecting late stage events in cell wall biosynthesis.

The next assay concerns N. gonorrhoeae. Description: Kirby-Bauer agar disk diffusion. The class given is cell-based, Neisseria gonorrhoeae. To be noted: Neisseria gonorrhoeae; Table 1; 6-mm disks, 20 μg test compound, 24 h, triplicate; β-lactamase positive; read-out: zone of growth inhibition, average diameter. In a few lines:
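β-lactamase-positive N. gonorrhoeae on agar plates with 6-mm disks loaded with 20 μg compound; zone diameter of growth inhibition (mm) read after 24 h, averaged over triplicate experiments.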

The test system of a further assay is Staph aureus 525. Nature of the assay: Kirby-Bauer agar disk diffusion. It counts as cell-based, Staphylococcus aureus. A general note: In agar diffusion tests the substance spreads into inoculated agar from a disc or well.
Assay [3] deals with Staphylococcus epidermidis. Nature of the assay: Kirby-Bauer agar disk diffusion. The class given is cell-based. The settings on record: 6-mm disks, 20 μg test compound. In a few lines: as §2
For the next assay, the system named is Micrococcus luteus. Description: Kirby-Bauer agar disk diffusion. It counts as cell-based. To be noted: 6-mm disks, 20 μg test compound. The procedure, abridged: as §2
The subject of assay [4] is Staphylococcus aureus (ATCC 25923). Nature of the assay: Kirby-Bauer agar disk diffusion. It counts as cell-based. The settings on record: 6-mm disks, 20 μg test compound. In a few lines: as §2

In the case of `CC1(C)S[C@@H]2[C@H](NC(=O)Cc3ccccc3)C(=O)N2[C@H]1C(=O)O` [PenG, penicillin G, reference compound], in assay [1], the cell morphology result was “wrinkled, deformed, or even sheared”. In the assay on MRSA strains, the MIC is above 64 µg/mL. Further, the zone of inhibition at 20 µg/disc was determined as 30 mm in assay [2] (Staphylococcus saprophyticus, ATCC3552, Table 1, 24 h, triplicate, read-out: zone of growth inhibition, average diameter); 0 mm with N. gonorrhoeae; 33 mm in the assay with Staph aureus 525 (Staphylococcus aureus, 525, Table 4, 20 μg disk loading, read-out: Zones of Inhibition); 50 mm in [3] (Staphylococcus epidermidis, Table 1, 24 h, triplicate, read-out: zone of growth inhibition, average diameter); 40 mm in the assay on Micrococcus luteus (Micrococcus luteus, Table 1, 24 h, triplicate, read-out: zone of growth inhibition, average diameter); 34 mm in [4] (Staphylococcus aureus, ATCC25923, Table 1, 24 h, triplicate, read-out: zone of growth inhibition, average diameter). The “zone of growth inhibition, average diameter” value was found to be 30 mm in assay [2] (Table 3, 24 hours); 50 mm in assay [3] (Table 3, 24 hours); 40 mm in the assay with Micrococcus luteus (Table 3, 24 hours); 34 mm in assay [4] (Table 3, 24 hours). For the same compound, in the assay with MRSA cells (Example 1), the “coloration upon Gram staining” value is “pink coloration”. Further, in the assay on MRSA cells (Example 5, MRSA cells grown in presence of the substance), the “cells Gram-stained purple” value is reported as “about 30%”. Moreover, the “Kirby-Bauer Disc Diffusion Test Results” value in the assay on Staph aureus 525 (Table 5) amounted to 33.
